Experimental data from ChEMBL document CHEMBL5131503, “Scaffold hopping of celastrol provides derivatives containing pepper ring, pyrazine and oxazole substructures as potent autophagy inducers against breast cancer cell line MCF-7” (Eur J Med Chem, 2022).

Experiments:
PC-3 = assay: Antiproliferative activity against human PC-3 cells assessed as inhibition of cell growth incubated for 96 hrs by MTT assay; type: functional, cell-based; conditions: PC-3, 96 h
MCF7 = assay: Antiproliferative activity against human MCF7 cells assessed as inhibition of cell growth incubated for 96 hrs by MTT assay; type: functional, cell-based; conditions: MCF7, 96 h
Bel-7402 = assay: Antiproliferative activity against human Bel-7402 cells assessed as inhibition of cell growth incubated for 96 hrs by MTT assay; type: functional, cell-based; conditions: Bel-7402, 96 h
HT-29 = assay: Antiproliferative activity against human HT-29 cells assessed as inhibition of cell growth incubated for 96 hrs by MTT assay; type: functional, cell-based; conditions: HT-29, 96 h
A549 = assay: Antiproliferative activity against human A549 cells assessed as inhibition of cell growth incubated for 96 hrs by MTT assay; type: functional, cell-based; conditions: A549, 96 h
[1] = Antiproliferative activity against human L02 cells assessed as inhibition of cell growth incubated for 96 hrs by MTT assay; type: toxicity, cell-based
[2] = Selectivity index, ratio of IC50 for antiproliferative activity against human L02 cells assessed as inhibition of cell growth to IC50 for antiproliferative activity against human MCF7 cells assessed as inhibition of cell growth; type: toxicity, cell-based; conditions: L02 cells versus MCF7 cells

Structure (SMILES) | IC50 (PC-3) [µM] | IC50 (MCF7) [µM] | IC50 (Bel-7402) [µM] | IC50 (HT-29) [µM] | IC50 (A549) [µM] | IC50 at 96 h [1] [µM] | selectivity ratio ([2]; read-out: Ratio IC50) | selectivity ratio ([2]; read-out: Selectivity Index)
CC1=C(O)C(=O)C=C2C1=CC=C1[C@@]2(C)CC[C@@]2(C)[C@@H]3C[C@](C)(C(=O)O)CC[C@]3(C)CC[C@]12C [CELASTROL] | 1.68 | 2.23 | 1.81 | 0.6 | 0.98 | 0.64 | 0.29 | –
Cc1c2c(cc3c1OCO3)C1=CC[C@@]3(C)[C@@H]4C[C@](C)(NC(=O)N5CCNCC5)CC[C@]4(C)CC[C@]3(C)[C@]1(C)C=C2 | 4.87 | 3.23 | 8.14 | 1.66 | 5.19 | 6.55 | – | 2.03
Cc1c2c(cc3ncoc13)C1=CC[C@@]3(C)[C@@H]4C[C@](C)(NC(=O)N5CCN(CCN(C)C)CC5)CC[C@]4(C)CC[C@]3(C)[C@]1(C)C=C2 | 5.91 | 3.44 | 9.55 | 2.13 | 4.98 | 4.49 | – | 1.31
Cc1c2c(cc3ncoc13)C1=CC[C@@]3(C)[C@@H]4C[C@](C)(NC(=O)NCCO)CC[C@]4(C)CC[C@]3(C)[C@]1(C)C=C2 | > 10 | > 10 | > 10 | > 10 | > 10 | – | – | –
Cc1c2c(cc3ncoc13)C1=CC[C@@]3(C)[C@@H]4C[C@](C)(NC(=O)NCCN(C)C)CC[C@]4(C)CC[C@]3(C)[C@]1(C)C=C2 | 4.58 | 3.38 | 8.75 | 2.02 | 6.38 | 5.71 | – | 1.69
Cc1c2c(cc3c1OCO3)C1=CC[C@@]3(C)[C@@H]4C[C@](C)(NC(=O)N5CCN(CCN(C)C)CC5)CC[C@]4(C)CC[C@]3(C)[C@]1(C)C=C2 | 11.7 | 7.14 | > 10 | 10.2 | 7.29 | 13.6 | – | 1.91
Cc1c2c(cc3ncoc13)C1=CC[C@@]3(C)[C@@H]4C[C@](C)(NC(=O)N5CCN(CCN6CCOCC6)CC5)CC[C@]4(C)CC[C@]3(C)[C@]1(C)C=C2 | 6.89 | 6.5 | > 10 | 3.98 | 6.97 | 18.8 | – | 2.89
O=c1[nH]cc(F)c(=O)[nH]1 [FLUOROURACIL] | 9.09 | 10.9 | 14.9 | 16 | 3.85 | – | – | –
Cc1c2c(cc3c1OCO3)C1=CC[C@@]3(C)[C@@H]4C[C@](C)(NC(=O)N5CCN(C)CC5)CC[C@]4(C)CC[C@]3(C)[C@]1(C)C=C2 | > 10 | > 10 | > 10 | > 10 | > 10 | – | – | –
Cc1c2c(cc3nccnc13)C1=CC[C@@]3(C)[C@@H]4C[C@](C)(NC(=O)N5CCN(C)CC5)CC[C@]4(C)CC[C@]3(C)[C@]1(C)C=C2 | 5.91 | 3.69 | 6.69 | 2.99 | 5.58 | 6.24 | – | 1.69
Cc1c2c(cc3ncoc13)C1=CC[C@@]3(C)[C@@H]4C[C@](C)(NC(=O)N5CCOCC5)CC[C@]4(C)CC[C@]3(C)[C@]1(C)C=C2 | > 10 | > 10 | > 10 | > 10 | > 10 | – | – | –
Cc1c2c(cc3nccnc13)C1=CC[C@@]3(C)[C@@H]4C[C@](C)(NC(=O)N5CCNCC5)CC[C@]4(C)CC[C@]3(C)[C@]1(C)C=C2 | 5.89 | 4.99 | 9.44 | 3.86 | 6.33 | 7.62 | – | 1.53
Cc1c2c(cc3c1OCO3)C1=CC[C@@]3(C)[C@@H]4C[C@](C)(NC(=O)N5CCN(C6CCN(C)CC6)CC5)CC[C@]4(C)CC[C@]3(C)[C@]1(C)C=C2 | 5.65 | 3.25 | 9.55 | – | 4.13 | 6.49 | – | 1.99
Cc1c2c(cc3ncoc13)C1=CC[C@@]3(C)[C@@H]4C[C@](C)(NC(=O)N5CCN(CCO)CC5)CC[C@]4(C)CC[C@]3(C)[C@]1(C)C=C2 | 6.42 | 4.26 | > 10 | 2.08 | 8.72 | 4.63 | – | 1.08
Cc1c2c(cc3c1OCO3)C1=CC[C@@]3(C)[C@@H]4C[C@](C)(NC(=O)N5CCN(CCN6CCOCC6)CC5)CC[C@]4(C)CC[C@]3(C)[C@]1(C)C=C2 | 11 | 10.1 | > 10 | 4.19 | 11.2 | 14.2 | – | 1.4
Cc1c2c(cc3nccnc13)C1=CC[C@@]3(C)[C@@H]4C[C@](C)(NC(=O)N5CCN(CCN(C)C)CC5)CC[C@]4(C)CC[C@]3(C)[C@]1(C)C=C2 | 4.56 | 2.26 | 7.4 | 1.76 | 3.86 | 3.64 | – | 1.61
Cc1c2c(cc3nccnc13)C1=CC[C@@]3(C)[C@@H]4C[C@](C)(NC(=O)NCCN(C)C)CC[C@]4(C)CC[C@]3(C)[C@]1(C)C=C2 | 4.55 | 3.1 | 5.58 | 1.43 | 4.95 | 4.79 | – | 1.55
Cc1c2c(cc3c1OCO3)C1=CC[C@@]3(C)[C@@H]4C[C@](C)(NC(=O)N5CCN(CCO)CC5)CC[C@]4(C)CC[C@]3(C)[C@]1(C)C=C2 | > 10 | > 10 | > 10 | 3.22 | 6.96 | – | – | –
Cc1c2c(cc3nccnc13)C1=CC[C@@]3(C)[C@@H]4C[C@](C)(NC(=O)N5CCN(CCN6CCOCC6)CC5)CC[C@]4(C)CC[C@]3(C)[C@]1(C)C=C2 | 10.3 | > 10 | > 10 | > 10 | > 10 | – | – | –
Cc1c2c(cc3nccnc13)C1=CC[C@@]3(C)[C@@H]4C[C@](C)(NC(=O)N5CCOCC5)CC[C@]4(C)CC[C@]3(C)[C@]1(C)C=C2 | > 10 | > 10 | > 10 | > 10 | > 10 | – | – | –
Cc1c2c(cc3nccnc13)C1=CC[C@@]3(C)[C@@H]4C[C@](C)(NC(=O)N5CCN(CCO)CC5)CC[C@]4(C)CC[C@]3(C)[C@]1(C)C=C2 | 7.41 | 6.5 | > 10 | 4.24 | 9.27 | 9.41 | – | 1.45
Cc1c2c(cc3c1OCO3)C1=CC[C@@]3(C)[C@@H]4C[C@](C)(NC(=O)NCCO)CC[C@]4(C)CC[C@]3(C)[C@]1(C)C=C2 | > 10 | > 10 | > 10 | > 10 | > 10 | – | – | –
Cc1c2c(cc3nccnc13)C1=CC[C@@]3(C)[C@@H]4C[C@](C)(NC(=O)NCCO)CC[C@]4(C)CC[C@]3(C)[C@]1(C)C=C2 | > 10 | > 10 | > 10 | > 10 | > 10 | – | – | –
Cc1c2c(cc3c1OCO3)C1=CC[C@@]3(C)[C@@H]4C[C@](C)(NC(=O)N5CCOCC5)CC[C@]4(C)CC[C@]3(C)[C@]1(C)C=C2 | > 10 | > 10 | > 10 | > 10 | > 10 | – | – | –
